Legend:
Apc10 = molecular target: T1, Apc10 (Saccharomyces cerevisiae, UniProt P53068); assay: Yeast 2-hybrid (Y2H) assay, Apc10 bait; assay type: binding
T1 construct: expressed in transfected cells; host or cells: yeast Y2H cells
T1 sequence (P53068 1-250): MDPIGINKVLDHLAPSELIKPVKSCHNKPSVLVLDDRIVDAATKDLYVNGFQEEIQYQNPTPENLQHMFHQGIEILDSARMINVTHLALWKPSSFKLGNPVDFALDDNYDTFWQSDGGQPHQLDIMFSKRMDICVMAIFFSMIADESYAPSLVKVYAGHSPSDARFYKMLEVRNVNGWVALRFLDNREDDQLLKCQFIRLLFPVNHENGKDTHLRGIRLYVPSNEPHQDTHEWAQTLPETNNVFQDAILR
Description: The reverse genetic screen utilized a yeast 2-hybrid (Y2H) protocol that selected for peptides that bound to the APC subunits Apc5 or Apc10 (see FIG. 8 for APC structure), to assess whether peptide-binding might modify APC function. Peptides that bound APC subunits were then assayed for those that suppressed APC mutant defects.
A library of random small peptides were cloned into a Thioredoxin (Trx) scaffold (see FIG. 9 for Trx-peptide structure) and expressed from a galactose-inducible Y2H prey vector in cells expressing the Apc10 bait vector (the modified Apc10 is still part of the complete APC complex). Six peptides that reproducibly interacted with the Apc10 bait construct in Y2H assays were identified (FIG. 1A) and were examined further. Cells will only grow in this assay if the peptide interacts with Apc5 or Apc10.
To identify peptides that bound to either Apc5 or Apc10 proteins using a yeast 2-hybrid (Y2H) screen, random small peptides were cloned into the TrxA scaffold (library provided by R. Geyer; FIG. 9) and expressed from a galactose-inducible Y2H prey vector in cells harboring either the APC5 or APC10 genes cloned into the Y2H bait vectors (APC5/APC10 bait constructs complement APC mutant defects).
Over 100 peptides that bound either Apc5 or Apc10 were recovered from millions screened. Six peptides that reproducibly interacted with the Apc5 or Apc10 bait construct in Y2H assays were examined further. Vectors expressing these 6 peptides were transformed into WT or APC mutant cells and assessed for ts growth.

wild type (WT) cells = assay: Growth of WT yeast expressing peptides, spot dilution; assay type: cell-based; details: peptides expressed in WT yeast
Source text: A. Yeast 2-hybrid (Y2H) cells expressing the APC subunit bait and the galactose inducible Apc10 peptide prey grown on glucose or galactose. Cells co-expressing the Apc5 or Apc10-bait and Apc10 aptamer-prey vectors were spotted onto the appropriate media, in the presence or absence of galactose (the aptamers are Gal inducible), to confirm Y2H interactions. Growth on trp^− his^− media ensures both plasmids are maintained. A Y2H interaction will drive expression of the ADE2 gene, allowing growth on ade^− media. B. Aptamers that bind Apc10 can suppress APC mutant phenotypes. Spot dilutions of apc10Δ cells expressing an empty vector control or the one of 6 Apc10 aptamers tested. Log phase cells were 10-fold serially diluted and spotted onto plates containing either 2% glucose or 2% galactose. The plates were then incubated at 30° C. (permissive temperature) and 34° C. (restrictive stress). C. Peptides identified as binding to the yeast Apc10 APC subunit using the Y2H screen increase growth of wildtype (WT) cells. A series of APC binding peptides were transformed into WT yeast cells, spot diluted, and grown at 30° C. on media supplemented with the normal carbon source (2% glucose). […]
The six peptide expressing vectors were transformed into apc10Δ cells and assessed for temperature sensitive growth. […]

APC (substrate Cyclin B) = assay: Cyclin B protein levels in MCF7 cells; assay type: cell-based, human; details: MCF7, 48 hrs; 1 mM metformin or transient transfection of peptide plasmid
Description: MCF7 breast cancer cells were treated with 1 mM metformin or transiently transfected with an APC activating peptide (C43-4) for 48 hrs, then harvested for assessment of Cyclin B protein levels. Cyclin B is an APC target.
A mouse model for growing patient derived breast tumor cells obtained from a patient with triple negative breast cancer was developed. This patient had developed resistance to Doxorubicin. Tumors growing in these mice grow rapidly. Mice growing the patient derived xenografted (PDX) tumor were injected with various amounts of M2I-1. […] Since the APC was activated in the canines tested in this study following treatment with metformin, it was asked if metformin can directly activate the APC. Reduced APC substrate Cyclin B levels following metformin treatment in human MCF7 breast cancer cells was observed, similar to that observed when MDF7 cells express the C43-4 plasmid (see below for more on this plasmid) (FIG. 21).

MDA-MB-231 cells = assay: Scratch assay, migration of MDA-MB-231 cells; assay type: cell-based, human
Description: A. An equal number of MDA-MB-231 TNBC cells were grown to confluence in 6 well plates. The cells were then treated with increasing doses of metformin (0, 1, 5 and 10 mM) and a scratch was made in the cell lawn creating a void. At the times shown the number of cell that migrated into the void were counted. The experiment was repeated twice. B. WT MDA-MB-231 cells and cells stably expressing the C43-4 plasmid were grown as in A. Control cells were left untreated, with other cells treated with the DMSO control, 1 uM DOX or 2.5 uM M2I-1. A void was created in the cell lawn and the number of cells that entered the void were scored as above. This experiment was repeated 4 times. This experiment was also repeated 4 times in an independently generated stable C43-4 cell line with similar results. The error of the mean is shown. C. WT and MDA-MB-231 cells stably expressing the C2-4B peptide plasmid were used for the scratch assay as described above. D. WT and MDA-MB-231 cells stably expressing the C13-3 peptide plasmid were used for the scratch assay as described above. The experiments in C and D were only performed once.
Assays using WT and C43-4 expressing cells have been done 4 times. Assays using C13-3 and C2-4B cells have only been conducted once. Metformin treated cells have been used twice. For scratch assays, a scratch is made down a confluent plate of cells, leaving a void. The number of cells that migrate back into the void over time is determined.

| Sequence | binds Apc10 in a yeast 2 hybrid assay (Apc10) | growth / viability of WT cells (wild type (WT) cells) | APC substrate Cyclin B protein levels (APC (substrate Cyclin B)) | metastatic potential / in vitro migration (MDA-MB-231 cells) |
| --- | --- | --- | --- | --- |
| NGSSHNDLRVRRLTLISRLC [C43-4] | Binds Apc10 | increases the viability of WT cells | reduces protein levels | inhibit the in vitro migration |
| RMPQWWQWMWV [C2-4B] | Binds Apc10 | – | – | inhibit the in vitro migration |
